These results are taken from US20160050895A1, “TRANSGENIC NON-HUMAN ORGANISMS WITH NON-FUNCTIONAL TSPO GENES” (AUSTRALIAN NUCLEAR SCIENCE AND TECHNOLOGY ORGANIZATION, priority 2013, published 2016).

In data set [1] the target is T1, TSPO (Mus musculus, UniProt P50637). Description: Receptor film autoradiography of tissue sections with [3H]PK11195 and [125I]CLINDE. Also on record: Snap-frozen tissues were sectioned at 20 μm in a cryostat; from tissue; host or cells: mouse organ sections (brain, retina/eye, heart, adrenal, kidney, testis, spleen), C57BL/6 background. The conditions noted are these: 10 μM unlabelled ligand; tissue sections from TSPO+/+ and TSPO+/- mice. Format: binding. As for the experimental part: Snap-frozen tissues were sectioned at 20 μm in a cryostat, thaw mounted on poly-L-lysine-coated slides and stored at −80° C. until day of experiment. On the day of the experiment, slides were thawed at room temperature and air dried with a cool stream of air. Total and non-specific binding were determined by incubation with 1 nM of 3H-PK11195 with or without the presence of 3 μM of PK11195 in 130 mM TRIS-HCl buffer (pH 7.4) at room temperature for 20 minutes. Following incubation, the slides were briefly dipped twice in 130 mM TRIS-HCl buffer, washed twice for 5 minutes in fresh 130 mM TRIS-HCl at room temperature. The slides were finally briefly rinsed 3 times in chilled distilled H2O, dried under a cool stream of air and allowed to air dried overnight. Sections were exposed to Kodak BioMax MR film along with tritium microscales with known activity concentrations in X-ray film cassettes. Films were developed after 33 days and digitized using a GS800 Calibrated Densitometer (Bio-Rad, Hercules, Calif., USA). Images were analysed with Quantity One imaging analysis program (Bio-Rad, Hercules, Calif. USA); to assess the level of 3H-PK11195 binding, regions of interest were drawn over the tissue and an average optical density/mm^2 was calculated. Data obtained from an individual film, subject to interfilm variations, were normalized against other films through the optical density oftritium microscales.
The organs including brain, retina, heart, kidney and testes used for film autoradiography were dissected from wild-type (TSPO^+/+), heterozygous (TSPO^+/−), and homozygous (TSPO^−/−) mice and snap-frozen in liquid nitrogen. Cryostat organ sections at 18 μm were placed onto superfrost slides (Menzel-Glaser, Braunschweig, Germany) and stored in the dark at −20° C. for no longer than 1 week before the experiment. […] Tritium standards (Amersham Biosciences, Uppsala, Sweden) co-exposed with the organ sections on each Hyperfilm-^3H (Kodak Film) at 4° C. for 60 days, were used to quantify the autoradiographically measured binding. The hyperfilm was developed using Kodak GBX developer and fixer (Sigma Aldrich, St. Louis, Mo., U.S.A.). The hyperfilm was air-dried overnight before being scanned using the ArtixScan 1800f flatbed scanner (Microtek, Hsinchu, Taiwan), with greyscale using a magnification of 400% and an optical resolution of 2400 pixels per inch. No pre-scanning manipulation or filter was applied.
(§1) Tissue sections from TSPO^+/+, TSPO^+/− and TSPO^−/− mice were incubated at room temperature for 20 min in 170 mM Tris-HCl pH 7.4 containing 1 nM [^3H]PK11195 (specific activity 84 Ci/mmol; Perkin Elmer, Waltham, Mass., USA), washed twice for 5 min in 170 mM Tris-HCl, rinsed with 3 dips in ice-cold MilliQ H2O, and dried. […] Displacement binding was carried out in the presence of PK11195 (10 μM), CLINDE (10 μM) and PBR-11 (10 μM).

Data set [2] deals with TSPO. In words: Radioligand membrane saturation binding with 3H-PK11195. Also on record: species or system mouse. The conditions noted are these: renal tissue samples; TSPO knock-out mice. As for the experimental part: Tissue samples were homogenised with T25 digital Ultra-Turrax homogenizer (Ika, Wilmington, N.C., USA) at speed setting 5 or 20000 rpm in approximately 45 mL of ice-cold TRIS buffer (pH 7.4), collected by centrifugation at 48000 g and the supernatant was then discarded. The procedure was then immediately repeated, this acts as an extra wash step to remove any soluble interfering substances to radioligand binding (Byland et al. 1993). Following the second centrifugation and removal ofsupernatant the samples were resuspended in approximately 50 volumes of ice-cold TRIS buffer (pH 7.4). Samples were aliquoted stored in −80° C. until required.
For TSPO knock-out mice studies, radioligand binding was performed using 3H-PK11195 racemate across a range of concentrations (FIG. 4). PK11195 is a TSPO specific probe. Total and non-specific binding was determined through 8 concentrations of 3H-PK11195 ranging from 0.56 nM to 20 nM. Non-specific binding was determined by the addition of 5 μM PK11195 to all concentrations of 3H-PK11195. […]
Organs were homogenised, washed twice in ice-cold 50 mM Tris-HCl (pH 7.4) by centrifugation at 48000×g, resuspended in 50 volumes of ice-cold 50 mM Tris-HCl, and protein concentration was determined using a BCA protein assay kit (Thermo Fisher Scientific). […] Non-specific binding was determined with 5 μM PK11195. […]

Data set [3] concerns TSPO. In words: Film autoradiography of brain sections after facial nerve axotomy. Format: binding, mouse. The following applies: homozygous (TSPO-/-) mice.
Source text: Procedures for facial nerve axotomy were approved by the animal ethics committee at the University of Sydney. Animals were anaesthetised using Isoflurane anaesthesia. Animals were monitored for a combination of respiration, heart rate, oxygen saturation and temperature during procedures using a variety of monitoring equipment to ensure anaesthetic depth. The surgical process commenced when foot-pad or plantar reflex could no longer be elicited. The fur on the ipsilateral (right) side of the neck was shaved from the ear downwards, and the skin cleaned using 70% ethanol. A small incision (0.5-0.7 cm in length) overlying the musculature covering the stylomastoid foramen was made. The facial nerve was identified, isolated and then transected completely. The skin of incision was closed with heal-glue. […] The animals were euthanized with CO2 3 days after the axotomy and brain tissue, including facial nerve nuclei in the brain stem and cerebellum, was immediately dissected, snap-frozen in liquid nitrogen, and then stored in −80° C. freezer until the cryostat section.
A small incision (0.5-0.7 cm) in the skin 0.5 cm dorsal and lateral to the ear was made and the facial nerve transected under an operating microscope. The incision was closed with 3M™ Vetbond™ Tissue Adhesive (St. Paul, Minn., USA). […] Mice were monitored carefully and euthanized with CO2 three days after the operation. Brains were dissected, placed in OCT, transferred to liquid nitrogen, and stored at −80° C. until cryo-sectioning.
as §1

Data set [4] deals with TSPO. Description: In vivo PET/CT imaging with [18F]PBR111. Also noted: species or system mouse. As for the experimental part:
(§2) PET scans of test mice were performed using a small-animal Inveon PET/CT scanner (Siemens, Knoxville, Tenn., USA). Before scanning, the mice were anesthetized with 5% (v/v) isoflurane and positioned in the PET/CT scanner. The isoflurane level was maintained 1-2% thereafter. The body temperature was maintained with a feedback regulated heating pad and physiologic parameters (respiration and body temperature) were monitored (BioVet; m2m Imaging Corp.) for the entire scanning period. Lacri-lube (Allergan) was placed in the mouse's eyes to prevent drying while the mouse was anesthetized. The PET scans commenced simultaneously with the tail vein injection of [^18F]PBR111 (8-18 MBq/100 μL, 0.2 nmol). After 40 min of imaging, PBR111 (1 mg/kg in 2% acetic acid-saline) was injected via tail vein to determine the non-specific accumulation in organs and imaged for further 10 minutes. Upon completion of PET scanning, mice were CT scanned for 10 minutes for anatomical information. At the end of the study the mice were euthanized immediately after imaging by cervical dislocation while the animal was still fully anaesthetised.
(§3) Mice, anaesthetised (5% (v/v) isoflurane and maintained at 1-2%, were scanned using a small-animal Invcon PET/CT scanner (Siemens, Knoxville, Tenn., USA) according to methods described previously (Disselhorst, J. A. et al. Image-quality assessment for several positron emitters using the NEMA NU 4-2008 standards in the Siemens Inveon small-animal PET scanner. J Nucl Med 51, 610-617, doi:10.2967/jnumed.109.068858 (2010); Mattner, F. et al. Central nervous system expression and PET imaging of the translocator protein in relapsing-remitting experimental autoimmune encephalomyelitis. J Nucl Med 54, 291-298, doi: 10.2967/jnumed.112.108894 (2013)). Body temperature was maintained with a feedback regulated heating pad and respiration monitored (BioVet; m2m Imaging Corp, Cleveland, Ohio, USA). Scans started with the tail vein injection of [^18F]PBR111 (8-18 MBq/100 μL, […]). After 40 min of imaging, PBR111 (1 mg/kg in 2% acetic acid-saline) was injected to determine non-specific accumulation in organs and imaged for 10 minutes. Then, mice underwent a 10-min CT-scan for anatomical information. All PET data were corrected, normalised and reconstructed with an OSEM3D-MAP algorithm to produced PET volumes of activity concentration (kBq/ml).

The target of data set [5] is T1, TSPO. In words: In vivo PET/CT imaging with [18F]PBR111. Also on record: from tissue; host or cells: organs of living mice (adrenal gland, kidney, heart, liver, lung, brain). As for the experimental part: as §2, §3

For the compound `CCN(CC)C(=O)Cc1c(-c2ccc(I)cc2)nc2ccc(Cl)cn12` [CLINDE], the “competitive binding: displacement of specific binding of [125I]CLINDE and [3H]PK11195 by unlabelled ligand” value (“competitive binding: displacement” below) on TSPO [1] is recorded as “displaced”.
As to `CC[C@@H](C)N(C)C(=O)c1cc2ccccc2c(-c2ccccc2Cl)n1` [PK11195, 1-(2-chlorophenyl)-N-methyl-N-(1-r-methylpropyl)-3-isoquinolinecarboxamide], the “binding of the TSPO-selective probe PK11195” value with TSPO [2] is given as “no binding”. For the same compound, the “intensity of PK11195 binding in the cerebellum” value in the data set with TSPO [3] is “the same as the surrounding background”. Also, at TSPO [1], the “competitive binding: displacement” value is on record as “displaced”.
Take `CCN(CC)C(=O)Cc1c(-c2ccc(OCCC[18F])cc2)nc2ccc(Cl)cn12` [[^18F]PBR111]: the “radiotracer observed in PET images” value in the data set on TSPO [4] (TSPO knock-out (homozygous, TSPO-/-) mouse) was “none”. Also, in the data set with TSPO [4] (TSPO-/- mice), the “ligand binding in PET/CT images” value is listed as “no ligand binding”. For the same compound, the “specific binding from radioligand kinetics and displacement with cold PBR111” value in the data set on TSPO [4] (TSPO-/- mice, any organs, cold PBR111 (1 mg/kg)) is “do not have specific binding”; at TSPO [5] (TSPO+/+ and TSPO+/- mice, cold PBR111 (1 mg/kg)), “indicates specific binding”. In addition, the “time course of radiotracer uptake” value is “rapidly reaches the peak and then declines to the non-specific level” in the data set on TSPO [4] (adrenal gland, kidney, liver and heart, TSPO knock-out mice (TSPO-/-)); “slowly increases, but maintains a peak level” at TSPO [5] (adrenal gland, kidney and liver, wild-type mice (TSPO+/+), until PBR111 at 40 min). Further, the “distribution of ligand binding in PET/CT images” value at TSPO [5] (TSPO+/+ and TSPO+/- mice) was “in organs with known high TSPO expression, notably kidney and adrenal gland”. At TSPO [5] (in vivo, validated against TSPO-/- null background), the “selectivity for TSPO” value is reported as “high selectivity”. Moreover, the “intensity of radiotracer in PET images” value on TSPO [5] (wild-type mouse (TSPO+/+)) is “high intensity”.
In the case of PBR-111, the “competitive binding: displacement” value on TSPO [1] is on record as “displaced”.
